Where two headings read alike, the source gives them in different places. Where a SMILES comes first, the peptide text is derived from it. [ ]: non-standard residue; d: D form. The star is where a group is joined. Asu = N[C@@H](CCCCCC(=O)O)C(=O)O; NH(2-NH2-phenyl) = Nc1ccccc1N*; X1 = Oc1ccccc1N*; X3 = Sc1ccccc1N*
Experiments:
human HDAC1 = target: T1, human HDAC1 (Homo sapiens, UniProt Q13547); assay: HDAC inhibitory activity in vitro (coumarin-labeled acetylated histone peptide), HDAC1; assay type: biochemical
T1 construct: FLAG; made in house; host or cells: 293T cells, transient transfection; anti-FLAG immunoprecipitation and FLAG peptide elution
T1 sequence (Q13547 whole entry): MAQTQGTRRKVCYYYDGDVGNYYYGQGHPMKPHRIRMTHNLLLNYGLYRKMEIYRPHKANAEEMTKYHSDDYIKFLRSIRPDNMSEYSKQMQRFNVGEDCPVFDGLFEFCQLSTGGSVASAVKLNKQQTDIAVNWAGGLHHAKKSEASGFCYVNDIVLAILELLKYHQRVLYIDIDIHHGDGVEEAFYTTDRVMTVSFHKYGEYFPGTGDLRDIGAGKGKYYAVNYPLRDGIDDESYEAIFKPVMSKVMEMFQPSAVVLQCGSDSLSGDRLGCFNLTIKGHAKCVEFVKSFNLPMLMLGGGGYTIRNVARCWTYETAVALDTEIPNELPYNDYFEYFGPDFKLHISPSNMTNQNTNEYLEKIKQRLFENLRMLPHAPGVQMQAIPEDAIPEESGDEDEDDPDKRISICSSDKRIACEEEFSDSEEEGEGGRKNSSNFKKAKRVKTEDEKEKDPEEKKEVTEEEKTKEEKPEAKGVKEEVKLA

human HDAC4 = target: T2, human HDAC4 (Homo sapiens, UniProt P56524); assay: HDAC inhibitory activity in vitro (coumarin-labeled acetylated histone peptide), HDAC4; assay type: biochemical
T2 construct: FLAG; made in house; host or cells: 293T cells, transient transfection; anti-FLAG immunoprecipitation and FLAG peptide elution
T2 sequence (P56524 whole entry): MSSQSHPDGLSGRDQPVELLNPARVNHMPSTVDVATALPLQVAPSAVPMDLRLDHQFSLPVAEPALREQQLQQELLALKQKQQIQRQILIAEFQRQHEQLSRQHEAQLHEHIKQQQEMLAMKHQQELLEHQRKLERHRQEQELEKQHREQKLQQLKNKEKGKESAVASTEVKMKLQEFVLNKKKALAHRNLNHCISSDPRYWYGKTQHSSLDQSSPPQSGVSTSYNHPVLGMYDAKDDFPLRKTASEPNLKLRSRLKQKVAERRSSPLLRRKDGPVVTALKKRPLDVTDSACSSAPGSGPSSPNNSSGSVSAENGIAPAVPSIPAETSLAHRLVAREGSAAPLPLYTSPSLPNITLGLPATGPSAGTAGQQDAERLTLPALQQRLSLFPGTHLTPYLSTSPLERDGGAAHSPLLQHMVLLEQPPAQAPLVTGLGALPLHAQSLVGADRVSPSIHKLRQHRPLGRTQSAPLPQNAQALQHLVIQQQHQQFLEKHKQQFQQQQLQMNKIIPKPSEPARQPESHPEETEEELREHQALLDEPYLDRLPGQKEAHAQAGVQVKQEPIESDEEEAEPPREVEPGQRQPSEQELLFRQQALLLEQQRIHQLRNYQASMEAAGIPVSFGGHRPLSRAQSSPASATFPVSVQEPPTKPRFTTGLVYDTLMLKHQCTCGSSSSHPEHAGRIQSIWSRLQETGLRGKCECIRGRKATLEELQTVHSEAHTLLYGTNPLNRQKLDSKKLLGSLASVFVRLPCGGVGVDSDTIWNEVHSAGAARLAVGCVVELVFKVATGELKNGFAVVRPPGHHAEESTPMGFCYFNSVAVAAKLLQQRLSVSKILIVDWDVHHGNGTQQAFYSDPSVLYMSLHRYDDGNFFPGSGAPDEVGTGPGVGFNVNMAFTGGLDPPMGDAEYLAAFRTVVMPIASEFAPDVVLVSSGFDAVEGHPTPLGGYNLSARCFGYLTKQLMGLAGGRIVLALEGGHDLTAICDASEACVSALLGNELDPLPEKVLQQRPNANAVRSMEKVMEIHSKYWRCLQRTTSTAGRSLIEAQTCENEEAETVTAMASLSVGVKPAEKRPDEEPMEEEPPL

[1] = system: human wild-type p21 promoter; assay: p21 promoter-inducing activity (luciferase) in MFLL-9 cells; assay type: cell-based
Experimental: The HDAC inhibitory activity in vivo was measured using p21 promoter-inducing activity as an index, as shown below. The MFLL-9 cells employed for the experiments stably maintained fusion genes of human wild-type p21 promoter and luciferase (Dr. B. Vogelstaein). Using phenol red-free DMEM medium comprising 10% FBS, cultivation was carried out in a steam-saturated incubator at 37° C. with 5% carbon dioxide. The MFLL-9 cells were plated at a density of 85,000 cells/well on a 96-well microtiter plate, each in 99 μl of the above-mentioned medium. These were then cultivated for six hours. One μl of test compound solution was added to each well, which was then cultured for another 18 hours.
The intensity of luminescence caused by the product of the enzyme reaction for intracellular luciferase expression was measured using Luc Lite (Packard BioScience Company).
HDAC inhibitory activity in an in vivo system was measured using p21 promoter induction as index. The experimental method followed that of Example 11.

mouse HDAC6 = target: T3, mouse HDAC6 (Mus musculus, UniProt Q9Z2V5); assay: HDAC inhibitory activity in vitro (coumarin-labeled acetylated histone peptide), HDAC6; assay type: biochemical
T3 construct: HA; made in house; host or cells: 293T cells, transient transfection; anti-HA immunoprecipitation and HA peptide elution
T3 sequence (Q9Z2V5 1-1149): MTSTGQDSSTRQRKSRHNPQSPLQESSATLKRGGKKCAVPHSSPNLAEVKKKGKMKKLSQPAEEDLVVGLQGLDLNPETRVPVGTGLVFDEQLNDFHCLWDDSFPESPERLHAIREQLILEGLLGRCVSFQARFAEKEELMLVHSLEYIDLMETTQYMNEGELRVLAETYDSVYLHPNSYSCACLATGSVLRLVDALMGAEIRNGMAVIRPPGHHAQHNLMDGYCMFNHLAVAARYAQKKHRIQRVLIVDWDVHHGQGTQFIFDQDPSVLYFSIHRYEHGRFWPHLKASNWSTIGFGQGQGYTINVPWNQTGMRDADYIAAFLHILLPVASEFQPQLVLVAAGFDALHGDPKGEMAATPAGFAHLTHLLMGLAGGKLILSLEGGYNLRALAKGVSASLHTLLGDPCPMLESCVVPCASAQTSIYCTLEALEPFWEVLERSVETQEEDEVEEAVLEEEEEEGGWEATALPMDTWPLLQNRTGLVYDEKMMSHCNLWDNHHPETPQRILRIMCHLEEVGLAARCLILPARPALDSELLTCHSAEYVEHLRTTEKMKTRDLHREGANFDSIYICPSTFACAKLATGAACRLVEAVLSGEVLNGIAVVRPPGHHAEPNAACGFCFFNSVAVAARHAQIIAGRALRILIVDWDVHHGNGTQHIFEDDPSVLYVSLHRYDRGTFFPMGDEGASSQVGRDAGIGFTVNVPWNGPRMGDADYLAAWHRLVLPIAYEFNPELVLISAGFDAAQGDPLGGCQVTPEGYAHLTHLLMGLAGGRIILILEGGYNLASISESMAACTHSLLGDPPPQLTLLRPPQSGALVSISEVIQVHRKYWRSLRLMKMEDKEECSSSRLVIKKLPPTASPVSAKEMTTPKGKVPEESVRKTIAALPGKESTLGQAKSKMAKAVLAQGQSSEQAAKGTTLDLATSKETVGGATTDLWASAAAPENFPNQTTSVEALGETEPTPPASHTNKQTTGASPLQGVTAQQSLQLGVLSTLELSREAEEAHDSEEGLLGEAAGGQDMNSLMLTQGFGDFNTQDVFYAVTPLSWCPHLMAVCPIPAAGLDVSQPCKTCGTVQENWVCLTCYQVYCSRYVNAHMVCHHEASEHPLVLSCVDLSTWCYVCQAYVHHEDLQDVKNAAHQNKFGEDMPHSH

[2] = amide bond, 12-membered ring, DMF
[3] = Table 3, method of Example 11, read-out: IC50(μM) HDAC1
[4] = Table 3, method of Example 11, read-out: IC50(μM) HDAC4
[5] = Table 3, method of Example 11, 50% of the maximum activity observed in TSA
[6] = Table 1, MFLL-9 cells, 18 hours, concentration corresponding to 50% of the maximum active value for TSA

CC[C@H](C)[C@@H]1NC(=O)[C@@H](Cc2ccc(OC)cc2)NC(=O)[C@H](CCCCCC(=O)Nc2ccccc2O)NC(=O)[C@H]2CCCN2C1=O [OAPOH, cyclo(L-Asu(OAPOH)-D-Tyr(Me)-L-Ile-D-Pro)] (cyclo([Asu](X1)[dY](Me)I[dP])) showed an IC50 (human HDAC1; [3]) of 1.22 µM, an IC50 (human HDAC4; [4]) of 0.23 µM and an EC50 [1, 5] of 55.1 µM.
For CC[C@H](C)[C@@H]1NC(=O)[C@@H](Cc2ccc(OC)cc2)NC(=O)[C@H](CCCCCC(=O)Nc2ccccc2S)NC(=O)[C@H]2CCCN2C1=O [OATP, cyclo(L-Asu(OATP)-D-Tyr(Me)-L-Ile-D-Pro)] (cyclo([Asu](X3)[dY](Me)I[dP])), the IC50 (human HDAC1) was 2.03 µM, the IC50 (human HDAC4) was 0.23 µM and the IC50 (mouse HDAC6) was 408 µM. It also gave an EC50 [1, 5] greater than 100 µM.
CC[C@H](C)[C@@H]1NC(=O)[C@@H](Cc2ccc(OC)cc2)NC(=O)[C@H](CCCCCC(=O)Nc2ccccc2N)NC(=O)[C@H]2CCCN2C1=O [OPD, cyclo(L-Asu(OPD)-D-Tyr(Me)-L-Ile-D-Pro)] (cyclo([Asu](NH(2-NH2-phenyl))[dY](Me)I[dP])) gave an IC50 (human HDAC1; [3]) of 4.04 µM, an IC50 (human HDAC4; [4]) of 15.7 µM and an IC50 (mouse HDAC6; Table 3, method of Example 11, read-out: IC50(μM) HDAC6) of 321 µM. For the same molecule, the EC50 [1, 5] was 30.9 µM.
With CC[C@H](C)[C@@H]1NC(=O)[C@@H](Cc2ccc(OC)cc2)NC(=O)[C@H](CCCCCSC)NC(=O)[C@H]2CCCN2C1=O [SMe] the EC50 [1, 6] was greater than 100 µM.
Molecule CC[C@H](C)[C@@H]1NC(=O)[C@@H](Cc2ccc(OC)cc2)NC(=O)[C@H](CCCCCS(C)(=O)=O)NC(=O)[C@H]2CCCN2C1=O [SO2Me] has an EC50 [1, 6] greater than 100 µM.
With CC[C@H](C)[C@@H]1NC(=O)[C@@H](Cc2ccc(OC)cc2)NC(=O)[C@H](CCCCS(=O)(=O)CC(=O)C(F)(F)F)NC(=O)[C@H]2CCCN2C1=O [Stfk] the EC50 [1, 6] was greater than 100 µM.
With CC[C@H](C)[C@@H]1NC(=O)[C@@H](Cc2ccc(OC)cc2)NC(=O)[C@H](CCCCOn2nnc3cccnc32)NC(=O)[C@H]2CCCN2C1=O [cyclo(-L-Ab6-D-Tyr(Me)-L-Ile-D-Pro-)] the ring closure, isolated yield ([2]; from H-dTyr(Me)-Ile-dPro-Ab6-OH, HBTU/HOBt/DIEA, 5.4 mM, 2 steps) was 32%.
Molecule CC[C@H](C)[C@@H]1NC(=O)[C@@H](Cc2ccc(OC)cc2)NC(=O)[C@H](CCCCCN(C=O)OCc2ccccc2)NC(=O)[C@H]2CCCCN2C1=O [cyclo(-L-Hly(For, OBzl)-D-Tyr(Me)-L-Ile-D-Pip-)] has a ring closure, isolated yield ([2]; from H-dTyr(Me)-Ile-dPip-Hly(For,OBzl)-OH?, HATU/DIEA, 0.39 mM, 25.0 °C) of 28%.
In the case of CC[C@H](C)[C@@H]1NC(=O)[C@@H](Cc2ccc(OC)cc2)NC(=O)[C@H](CCCCCN(C=O)OCc2ccccc2)NC(=O)[C@H]2CCCN2C1=O [cyclo(-L-Hly(For, OBzl)-D-Tyr(Me)-L-Ile-D-Pro-)], the ring closure, isolated yield ([2]; from H-dTyr(Me)-Ile-dPro-Hly(For,OBzl)-OH, HATU/DIEA, 0.96 mM, 25.0 °C) is reported as 66%.
For CC[C@H](C)[C@@H]1NC(=O)[C@@H](Cc2ccc(OC)cc2)NC(=O)[C@H](CCCCCN(C=O)OCc2ccccc2)NC(=O)[C@@H]2CCCCN2C1=O [cyclo(-L-Hly(For, OBzl)-D-Tyr(Me)-L-Ile-L-Pip-)], the ring closure, isolated yield ([2]; from H-dTyr(Me)-Ile-Pip-Hly(For,OBzl)-OH?, HATU/DIEA, 0.39 mM, 25.0 °C) was 28%.
In the case of “Cyclo(-L-Asu(OBzl)-D-Tyr(Me)-L-Ile-D-Pro-) [COOBzI]”, the EC50 [1, 6] is reported as greater than 100 µM.

Reference: US7662778B2, “Histone deacetylase inhibitor and process for producing the same” (Riken, priority 2003, dated 2010)
